PubChem BioAssay (NCI)
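Following 48 hours of exposure in 96-well plates, responses at five concentrations were used to interpolate endpoints linearly. GI50 = concentration required for 50% inhibition of growth. Definition used: TGI = concentration required for complete inhibition of growth.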

Legend:
Assay in all cases: DTP human tumour cell line panel, 48 h
HCC-2998 colon = test system: HCC-2998 colon
COLO 205 colon = test system: COLO 205 colon
SNB-75 CNS = test system: SNB-75 CNS
SK-MEL-5 melanoma = test system: SK-MEL-5 melanoma
UO-31 renal = test system: UO-31 renal
OVCAR-3 ovarian = test system: OVCAR-3 ovarian
SF-539 CNS = test system: SF-539 CNS
SNB-19 CNS = test system: SNB-19 CNS
UACC-257 melanoma = test system: UACC-257 melanoma
EKVX NSCLC = test system: EKVX NSCLC

Structure (SMILES)	TGI (HCC-2998 colon)	TGI (COLO 205 colon)	TGI (SNB-75 CNS)	TGI (SK-MEL-5 melanoma)	TGI (UO-31 renal)	TGI (OVCAR-3 ovarian)	TGI (SF-539 CNS)	TGI (SNB-19 CNS)	TGI (UACC-257 melanoma)	TGI (EKVX NSCLC)	GI50 (HCC-2998 colon)	GI50 (COLO 205 colon)	GI50 (SNB-75 CNS)	GI50 (SK-MEL-5 melanoma)	GI50 (UO-31 renal)	GI50 (OVCAR-3 ovarian)	GI50 (SF-539 CNS)	GI50 (SNB-19 CNS)	GI50 (UACC-257 melanoma)	GI50 (EKVX NSCLC)
N#CC1(C#N)NC(c2cccs2)C(C#N)(C#N)NC1c1cccs1 (stereo unspecified)	93.3 µM	> 100 µM	> 100 µM	74.2 µM	> 100 µM	67.8 µM	47.6 µM	> 100 µM	> 100 µM	> 100 µM										
O=C1C[C@@H](C(=O)OCc2ccccc2)NC(=O)C[C@@H](C(=O)OCc2ccccc2)NC(=O)C[C@@H](C(=O)OCc2ccccc2)N1	> 100 µM	> 100 µM	13.7 µM	> 100 µM	> 100 µM	> 100 µM	> 72.3 µM	> 100 µM	> 100 µM	> 100 µM										
O=C1C(Cl)=C(OCCCl)C(=O)c2c(O)ccc(O)c21	35.4 µM	3.26 µM	26.3 µM	6.91 µM	11 µM	10.9 µM	31.8 µM	32.7 µM	8.01 µM	34.2 µM										
O=C(N/N=C/C=C/c1ccc([N+](=O)[O-])o1)c1cc2ccccc2cc1O	2.59 µM	3.35 µM	6.12 µM	1.48 µM	4.06 µM	5.83 µM	10.2 µM	24.4 µM	4.21 µM	9.48 µM	1.31 µM	1.84 µM	1.97 µM	0.349 µM	1.05 µM	0.562 µM	2.44 µM	3.2 µM	1.38 µM	2.64 µM
CC1C(=O)N(c2ccccc2)NC12CCCc1ccccc12 (stereo unspecified)	> 100 µM	> 100 µM	> 100 µM	> 100 µM	> 100 µM	> 100 µM	> 100 µM	> 100 µM	> 100 µM	> 100 µM										
Cc1ccc(OCC2OC(n3cnc4c(Cl)nc(N)nc43)CC2Oc2ccc(C)cc2)cc1 (stereo unspecified)	> 57.4 µM	98.2 µM	> 100 µM	> 100 µM	13.3 µM	> 63.9 µM	> 100 µM	> 100 µM	> 100 µM	> 59.3 µM										
COc1cccc(CCN2CCN(CCCc3ccccc3)CC2)c1	> 100 µM	45.2 µM	> 100 µM	40.6 µM	> 100 µM	> 100 µM	> 100 µM	> 100 µM	> 100 µM	> 100 µM										
Cc1csc(NC23CC4CC(CC(C4)C2)C3)[n+]1C(P(=O)([O-])O)P(=O)(O)O (stereo unspecified)	> 100 µM	> 100 µM	> 100 µM	> 100 µM	> 100 µM	> 100 µM	> 100 µM	> 100 µM	> 100 µM	> 100 µM										
CN(C)c1ccc(/C(F)=C(F)/C(F)=C(F)/C(F)=C(\F)c2ccc(Br)cc2)cc1	> 100 µM	63.2 µM	92.9 µM	> 100 µM	> 100 µM	> 60.5 µM	> 100 µM	> 78.5 µM	> 100 µM	> 100 µM										
Cc1cc(-c2nc3cc(F)ccc3s2)ccc1NC(=O)[C@@H](N)CCCCN	6.85 µM	9.35 µM	4.99 µM	27.1 µM	13.9 µM	22.5 µM	9.73 µM	28.9 µM	13.3 µM	16.5 µM										
COc1cc2ccc(=O)oc2cc1O	305 µM	> 625 µM	175 µM	302 µM	183 µM	330 µM	201 µM	432 µM	270 µM	226 µM	56.4 µM									
OCC(O)C(O)C(O)C(O)c1nc2ccc(Cl)cc2[nH]1 (stereo unspecified)	> 100 µM	> 100 µM	> 100 µM	> 100 µM	> 100 µM	> 100 µM	> 100 µM	> 100 µM	> 100 µM	> 100 µM										
CC(NC(=O)C(NC(=O)CNC(=O)OC(C)(C)C)C(C)C)C(=O)Oc1c(Cl)c(Cl)c(Cl)c(Cl)c1Cl (stereo unspecified)	39.4 µM	43.2 µM	78.7 µM	33.9 µM	29.5 µM	28.5 µM	33.4 µM	96 µM	44.7 µM	83.8 µM										
C/C=C/c1cc(=O)c([C@@H]2OC(=O)c3cc(OC)cc(OC)c32)co1	90 µM	55.5 µM	60.3 µM	> 100 µM	> 100 µM	64.3 µM	> 100 µM	> 100 µM	> 100 µM	> 100 µM										
Cc1ccc2c(=O)cc(-c3ccc(Cl)s3)[nH]c2n1	25.9 µM	28.8 µM	> 27.9 µM	17.7 µM	0.301 µM	> 100 µM	3.93 µM	> 100 µM	> 100 µM	> 100 µM										
ClCCCc1ccccc1C1=NCCc2ccccc21	> 100 µM	52.9 µM	> 100 µM	40.5 µM	> 100 µM	> 100 µM	> 100 µM	> 100 µM	> 100 µM	> 100 µM										
CC(=O)NCCC1CN(C(=O)/C=C/I)c2ccccc21 (stereo unspecified)	29.6 µM	14.1 µM	30.7 µM	20.3 µM	6.85 µM	12.6 µM	21.1 µM	27.9 µM	20.4 µM	33.3 µM										
CCCCCCCC/C=C\CCCCCCC/C=C1\C[C@](/C=C/C(=O)OC)(CO)OC1=O	13.8 µM	5.02 µM	4.59 µM	16.8 µM	3.76 µM	16.6 µM	3.82 µM	16 µM	26.6 µM	24.7 µM										
CCNCCCn1c2c(c3ccc(Cl)cc3c1=O)C(=O)c1cc(OC)cnc1-2	2.99 µM	1.57 µM	1.64 µM	2.49 µM	2.37 µM	19.6 µM	1.71 µM	2.66 µM	32.9 µM	2.78 µM	1.28 µM	0.146 µM	0.262 µM	0.813 µM	0.543 µM	2.13 µM	0.506 µM	0.585 µM	14.5 µM	0.859 µM
CSCCC(N)C(=O)NCCNc1ccc(NCCNC(=O)C(N)CCSC)c2c1C(=O)c1ccccc1C2=O (stereo unspecified)	2.33 µM	3.13 µM	3.65 µM	13.2 µM	4.39 µM	9.44 µM	3.11 µM	5.81 µM	12.7 µM	9.65 µM										
O=C1CCCCC/C1=C\c1ccc([N+](=O)[O-])cc1	33.1 µM	49.2 µM	> 100 µM	43.7 µM	79.7 µM	73.2 µM	62.5 µM	> 100 µM	54.9 µM	> 100 µM										
COc1c(O)c(C=O)c2c(O)c(-c3c(C)cc4c(C(C)C)c(OC)c(O)c(C=O)c4c3O)c(C)cc2c1C(C)C	5.34 µM	4 µM	9.38 µM	22.7 µM	11.1 µM	10.7 µM	12.8 µM	16.5 µM	29 µM	17.7 µM										
Cc1ccc([S@](=O)c2occc2C=O)cc1	29.3 µM	28.9 µM	30.9 µM	23.1 µM	23.2 µM	6.41 µM	25.8 µM	18 µM	26.3 µM	43.6 µM										
OCCO/N=C1\C(c2c(O)[nH]c3ccccc23)=Nc2ccccc21	> 100 µM	> 100 µM	> 100 µM	> 100 µM	> 100 µM	> 100 µM	> 100 µM	> 100 µM	> 100 µM	> 100 µM										
COC(OC)[C@@H]1OC[C@H](n2cnc3c(N)ncnc32)[C@H]1O	> 100 µM	> 100 µM	> 100 µM	> 100 µM	> 100 µM	> 100 µM	> 100 µM	> 100 µM	> 100 µM	> 100 µM										
CC(=O)Oc1cc2c(cc1OC(C)=O)OCC(c1ccc(C)cc1)C2 (stereo unspecified)	16.4 µM	41.8 µM	32.3 µM	13.6 µM	38.3 µM	41 µM	32 µM	124 µM	40.3 µM	42.1 µM										
OC1(c2ccccc2)CCN(Cc2c[nH]c3ccccc23)CC1	31.6 µM	31.7 µM	> 100 µM	> 100 µM	> 100 µM	> 100 µM	> 100 µM	> 100 µM	40.4 µM	> 100 µM										
CC(=O)N1CC(C)(C)c2c(C)c(O)c(C)c(C)c21	> 100 µM	> 100 µM	> 100 µM	> 100 µM	> 100 µM	> 100 µM	> 100 µM	> 100 µM	> 100 µM	> 100 µM										
NC(=O)c1cccc([N+](=O)[O-])c1	> 100 µM	> 100 µM	> 100 µM	> 100 µM	> 100 µM	> 100 µM	> 100 µM	> 100 µM	> 100 µM	> 100 µM										
CN(C)c1nc(N)nc(CS)n1	> 100 µM	> 100 µM	> 100 µM	> 100 µM	> 100 µM	> 100 µM	> 100 µM	> 100 µM	> 100 µM	> 100 µM										
